This is an account of results in publication PMC9127186, “Molecular Basis Underlying Hepatobiliary and Renal Excretion of Phenolic Acids of Salvia miltiorrhiza Roots (Danshen)” (Frontiers in Pharmacology, 2022).

One data set deals with T1, human OAT1 (Homo sapiens, UniProt Q4U2R8).
T1 sequence (Q4U2R8 1-563): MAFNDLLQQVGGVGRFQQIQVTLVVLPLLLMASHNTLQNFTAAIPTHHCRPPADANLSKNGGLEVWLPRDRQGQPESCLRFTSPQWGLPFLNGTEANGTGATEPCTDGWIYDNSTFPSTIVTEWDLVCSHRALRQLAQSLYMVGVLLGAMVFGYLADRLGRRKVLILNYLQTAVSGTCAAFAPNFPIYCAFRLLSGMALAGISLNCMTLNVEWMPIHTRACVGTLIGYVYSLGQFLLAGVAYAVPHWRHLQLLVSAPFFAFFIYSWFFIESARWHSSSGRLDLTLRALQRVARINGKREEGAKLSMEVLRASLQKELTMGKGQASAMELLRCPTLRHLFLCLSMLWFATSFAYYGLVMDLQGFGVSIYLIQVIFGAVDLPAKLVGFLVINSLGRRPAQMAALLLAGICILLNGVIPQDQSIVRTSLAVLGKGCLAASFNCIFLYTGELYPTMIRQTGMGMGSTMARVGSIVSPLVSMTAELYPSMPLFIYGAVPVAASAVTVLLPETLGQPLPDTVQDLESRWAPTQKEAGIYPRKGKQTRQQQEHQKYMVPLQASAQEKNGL
Also noted: method as in Kang et al. (2021). The note with it: ref Kang et al. (2021); cited from earlier work.

The target in the next data set is T2, human OCT3 (Homo sapiens, UniProt O75751).
T2 sequence (O75751 1-556): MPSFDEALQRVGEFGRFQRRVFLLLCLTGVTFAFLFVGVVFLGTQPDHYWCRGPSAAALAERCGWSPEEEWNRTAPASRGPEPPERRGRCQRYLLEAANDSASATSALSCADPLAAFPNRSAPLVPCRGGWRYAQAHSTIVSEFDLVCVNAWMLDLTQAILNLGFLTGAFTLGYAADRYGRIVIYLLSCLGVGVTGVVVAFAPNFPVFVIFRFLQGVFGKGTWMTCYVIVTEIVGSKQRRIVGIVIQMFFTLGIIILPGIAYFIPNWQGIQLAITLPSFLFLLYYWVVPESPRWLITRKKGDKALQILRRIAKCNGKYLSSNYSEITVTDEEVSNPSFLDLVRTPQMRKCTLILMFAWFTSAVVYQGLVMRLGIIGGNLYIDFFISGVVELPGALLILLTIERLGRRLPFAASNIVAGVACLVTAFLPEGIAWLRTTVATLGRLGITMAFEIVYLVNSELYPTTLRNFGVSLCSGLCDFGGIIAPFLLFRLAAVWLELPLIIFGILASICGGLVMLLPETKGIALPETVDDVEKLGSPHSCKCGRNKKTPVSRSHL

On to `O=C(/C=C/c1ccc(O)c(O)c1)O[C@H](Cc1ccc(O)c(O)c1)C(=O)O` [Rosmarinic acid, rosmarinic acid], for which the “substrate of human OAT1” value on human OAT1 is “substrate”.
Regarding `O=C(/C=C/c1ccc(O)c(O)c1/C=C/c1ccc(O)c(O)c1)O[C@H](Cc1ccc(O)c(O)c1)C(=O)O` [Salvianolic acid A, salvianolic acid A], the “TransportTC/TransportMC ratio (net transport ratio)” value on human OCT3 is recorded as 1.31 ± 0.09.
